US20200399329A1, “ANTIMICROBIAL PEPTIDES” (priority 2015, published 2020)
≈ marks a conversion by molar mass, not a printed value. Where “and” joins values, the source holds several entries; their conditions need not be identical. Equal entries are not always repeated. Where two headings read alike, the source gives them in different places. Where a SMILES comes first, the peptide text is derived from it.

Legend:
[1] = system: E. coli; test: E. coli growth monitored via OD600 nm with CecA or OMN6; type: cell-based
Procedure: An assay was conducted in order to compare the antimicrobial activity of the native peptide Cecropin A (CecA) vs. a peptide of the invention OMN6. E. coli bacteria were cultured with CecA or OMN6 in concentration of 12.5 μM for 17-20 hours. The growth of the bacteria was continuously monitored via spectrophotometry at 600 nm. As bacterial growth progresses, OD600 nm values rise, and where the growth is inhibited OD600 nm values remain constant. […] The bacteria completely overcame the inhibitory effect of CecA after 10 hours. The bacteria then continued to thrive and grow to density similar to that of the CTRL group.

[2] = system: E. coli; test: Antimicrobial activity after pre-treatment of peptide with Proteinase-K; type: cell-based; details: 12.5 μM peptide pre-treated with 20 ng ProtK for 2 hours at 37° C., 18 hours
Procedure: The susceptibility of OMN6/CecA to proteolytic degradation was assessed and the effects of stability on activity were determined. Native peptide-CecA and engineered peptide-OMN6 were incubated with 20 ng of Proteinase-K (ProtK) at 37° C. for two hours (left bars and right bars, respectively). E. coli at 500,000 CFU/ml were incubated for 18 hours with either CecA or OMN6 pretreated with ProtK. After the incubation, bacterial survival was determined via absorption at OD600 nm and via CFU count on agar plates.

[3] = system: E. coli ESBL BAA-198; type: cell-based, Escherichia coli
Procedure: (§1) In order to determine the Minimal Bactericidal Concentration (MBC) values of the peptides, colony formation of various bacteria strains was monitored and determined after treatment with the peptides of the invention. Multi-Drug Resistant A. baumannii bacteria were cultured with or without OMN6 in increasing concentrations, as is detailed in FIG. 6 and Example 6. Immediately afterwards, samples of each experimental group were diluted to 1×10^4 to 1×10^6 as necessary, and further, the samples were plated on appropriate medium-agar plates. All the plates were incubated at 37° C. for 24-48 hours. Colonies were counted and CFU/ml in the original sample, prior to plating, were calculated and determined. An example of the plates, after incubation, is presented in FIG. 7 where the plate on the left side of the image is the CTRL sample treated with DDW and in the right side of the image increasing concentrations of OMN6 are presented, as specified therein.
(§2) The experimental system and parameters described here were used to determine the MBC values of OMN2, OMN6, OMN7 and OMN11 on various bacteria strains with and without the supplementation of 10% FBS (Table 6 and Table 8).

[4] = system: A. baumannii BAA-1793; type: cell-based, Acinetobacter baumannii; details: FIG. 7
Procedure: as §1, §2

[5] = Preliminary topical safety in mice; type: in vivo; details: topical single dose 0.5-4 mg/kg
Procedure: The antimicrobial peptide OMN6 was administered to mice in order to evaluate and quantify whether toxic effects are present. OMN6 peptide (C195H332N56O49S3) was administered topically according to concentrations and groups detailed in Table 9.
Mice approved for this experiment: Outbred Hsd:ICR (CD-1®)—weight 18-20 g. Saline solution (0.9% NaCl) as sham treatment or OMN6 dissolved in saline were administered directly onto the skin of mice after the hair was shaved. A total volume of 16 μl was administered to each animal.
In this experiment, the peptide OMN6 of the invention was administered in a single dose, at four different concentrations (mg/kg). Mortality of mice in all experiment groups was monitored in comparison to a Sham (CTRL) group. Food and water consumption, post treatment, was monitored by individual weight measurements once every two days. At the end of the experiment, blood was taken from all animals and 200 μl of blood was separated and plasma was analyzed for erythrocyte hemolysis. • Experimental Map: • 1. Mice (six per group) were given a single-dose administration on day 1, according to group specification (Table 9). Food and water consumption (weight analysis) along with mortality of mice in all groups were monitored for four days post treatment. At the end of the five day trial, the animals were sacrificed. • 2. Free Hgb (hemoglobin) assay was performed on day 5, on all samples from all groups, for erythrocyte hemolysis analysis. • 3. Water/food availability, temperature and other conditions remained unchanged between the groups for the entire five day trial. • 4. Erythrocyte hemolysis analysis was performed via hemoglobin assay kit (Sigma-Aldrich, 3 Plaut St. Rehovot, Israel).

[6] = system: Escherichia coli (ATCC BAA-198) ESBL; test: Efficacy in mouse model of subcutaneous infection with E. coli; type: in vivo, mice
Procedure: Animals: Healthy adult female mice weighing 16-20 g were used. CD-I outbred (Harlan Breeding Labs, Jerusalem, Israel) were used in all experiments. Animals were caged in groups of 5-10 and were maintained on chow (Ralston Purina) and water ad-libitum.
Bacteria: Escherichia coli (ATCC BAA-198) is an extended spectrum beta-lactamase (ESBL) TEM-26 multi drug resistant strain. Stock cultures were grown in Tryptic Soy Broth (TSB) (Becton, Dickinson and company BD. Maryland, USA) at 37°.
Colonies were counted after incubation for 24 hours on TSB-agar (BD), and results were expressed as colony forming units (CFU)/ml.
Inoculum: All broth cultures were adjusted to 1×10^8 CFU/animal for the challenge dose by adding TSB to a final volume of 50 μl. Bacteria were administered via subcutaneous (SC) injection with tuberculin syringes capped with 29-gauge needles. Recipient animals had the right flank shaved and depilated with hair remover cream (ORNA19, Israel). To inject the inoculum, the needle was inserted SC 1 cm lateral to the thoracic spine and just anterior to the right hind extremity. The needle was tracked anteriorly and SC for 1 cm; then 50 μl of inoculum was injected.
OMN6 peptide at 8 mg/kg in a total volume of 80 μl was injected SC after one hour to the same area. All animals appeared well and fully active within 2-4 hours after this procedure. All animals were monitored for food and water consumption, mortality and any other adverse effects for the entire 5-day duration of the experiment.
Evaluation of Bacterial Burden: A 2 cm^2 area of skin was incised and the inner side, where the abscess was located, was scraped with a sterile scalpel. Scraped tissue was filtered through a 40 μm cell-strainer. Filtered mass was collected, centrifuged at 500 RPM for 2 minutes and a sample from the supernatant was plated on TBS-agar plates for 24 hours at 37°. Colonies were then counted and results are presented as CFU/abscess (see FIG. 10A).
Evaluation of Abscesses: Animals were assessed for the presence and size of abscesses on day 5. The animals were anesthetized (Ketamine 225 mg/kg/Xylazine 6 mg/kg BW IP), the right hind flank area was gently exposed by aseptic technique. Abscesses were recorded and then measured by calipers: the product of the longest diameter (D) and corresponding perpendicular diameter (d) was determined as “abscess size” (D×d) findings presented in mm^2 (see FIG. 10B).

[7] = mice, SC 1×10^8 CFU E. coli ESBL, OMN6 8 mg/kg SC after one hour, day 5

Structure (SMILES): CC[C@H](C)[C@H](NC(=O)CNC(=O)[C@H](CC(=O)O)NC(=O)[C@H](CCCNC(=N)N)NC(=O)[C@@H](NC(=O)[C@H](CC(N)=O)NC(=O)[C@H](CCC(N)=O)NC(=O)CNC(=O)[C@@H](NC(=O)[C@H](CCCCN)NC(=O)[C@H](CCC(=O)O)NC(=O)[C@@H](NC(=O)[C@H](CCCCN)NC(=O)[C@H](CCCCN)NC(=O)[C@H](Cc1ccccc1)NC(=O)[C@H](CC(C)C)NC(=O)[C@H](CCCCN)NC(=O)[C@H](Cc1c[nH]c2ccccc12)NC(=O)[C@H](CCCCN)NC(=O)[C@H](CS)NC(=O)[C@@H](N)CCSC)[C@@H](C)CC)C(C)C)[C@@H](C)CC)C(=O)N[C@H](C(=O)N[C@@H](CCCCN)C(=O)N[C@@H](C)C(=O)NCC(=O)N1CCC[C@H]1C(=O)N[C@@H](C)C(=O)N[C@H](C(=O)N[C@@H](C)C(=O)N[C@H](C(=O)N[C@H](C(=O)NCC(=O)N[C@@H](CCC(N)=O)C(=O)N[C@@H](C)C(=O)N[C@H](C(=O)N[C@@H](CCC(N)=O)C(=O)N[C@H](C(=O)N[C@@H](C)C(=O)N[C@@H](CCCCN)C(=O)N[C@@H](CS)C(N)=O)[C@@H](C)CC)[C@@H](C)O)C(C)C)C(C)C)C(C)C)[C@@H](C)CC [OMN6] (H-MCKWKLFKKIEKVGQNIRDGIIKAGPAVAVVGQATQIAKC-NH2; N-terminus and C-terminus assumed)
- Inhibition of E. coli growth (OD600 nm) ([1]; 12.5 μM, 17-20 hours): completely inhibited bacterial growth
- Duration of growth inhibition ([1]; 12.5 μM, E. coli): more than 17 hours
- Colonies after plating (bactericidal nature) ([1]; E. coli, experiment groups of Example 2 plated): no colonies present
- Bacterial survival/growth as percent of CTRL group [2]: less than 10%
- MBC [3]: 5 µM (≈ 21.7 µg/mL)
- Colony formation of Multi-Drug Resistant A. baumannii after plating ([4]; OMN6 0.62 μM and 1.25 μM): no inhibition of growth
- Colony formation of Multi-Drug Resistant A. baumannii after plating ([4]; OMN6 2.5 μM, 5 μM and 10 μM): void of colonies
- Clinical signs (diarrhea, bloody diarrhea, stand-on-end hair, apathy or restlessness) ([5]; 5-day experiment): not observed
- Mortality ([5]; 5-day experiment): not observed
- Toxic or otherwise adverse effects ([5]; 5-day experiment): does not exert any toxic or otherwise adverse effects
- Weight-loss ([5]; 5-day experiment): not observed
- Hemolysis of erythrocytes (Free Hgb assay) ([5]; day 5): No evidence of hemolysis
- Decrease in abscess size ([6]; OMN6 8 mg/kg SC versus sham-saline): 80%
- Decrease in bacteria burden ([6]; OMN6 8 mg/kg SC versus sham-saline, 8 mg/kg): 93.3% and 94%
- Average size of the abscesses (D×d) [6, 7]: 7.25 mm^2
- Bacteria burden [6, 7]: 20 CFU/mouse
